Assay [1] has as its target T1, MLLT1 (Homo sapiens, UniProt Q03111). Particulars: read-out: MLLT1 assay IC50; HTRF, 6His tagged MLLT1, biotinylated H3K9cro peptide; compound 20 μM to 20 nM, 11 data points in duplicate. Background: In TR-FRET formats the signal depends on donor and acceptor labels being close together.
Assay [2] has as its target MLLT3 (Homo sapiens, UniProt P42568). Nature of the assay: HTRF IC50 determination assay, MLLT3 / H3K9cro peptide displacement.
In assay [3] the target is T1, MLLT1. Nature of the assay: biochemical. Particulars: MLLT1 assay IC50 (nM), HTRF, 6His tagged MLLT1, biotinylated H3K9cro peptide; compound 20 μM to 20 nM, 11 data points in duplicate.
Setting [4] is: read-out: MLLT3 assay IC50, 6His tagged MLLT3, biotinylated H3K9cro peptide, compound 20 μM to 20 nM, 11 data points in duplicate.

Structures are written as SMILES. Read-outs that look alike come from different tables or passages of the source.

Chain of MLLT3 (P42568 whole entry): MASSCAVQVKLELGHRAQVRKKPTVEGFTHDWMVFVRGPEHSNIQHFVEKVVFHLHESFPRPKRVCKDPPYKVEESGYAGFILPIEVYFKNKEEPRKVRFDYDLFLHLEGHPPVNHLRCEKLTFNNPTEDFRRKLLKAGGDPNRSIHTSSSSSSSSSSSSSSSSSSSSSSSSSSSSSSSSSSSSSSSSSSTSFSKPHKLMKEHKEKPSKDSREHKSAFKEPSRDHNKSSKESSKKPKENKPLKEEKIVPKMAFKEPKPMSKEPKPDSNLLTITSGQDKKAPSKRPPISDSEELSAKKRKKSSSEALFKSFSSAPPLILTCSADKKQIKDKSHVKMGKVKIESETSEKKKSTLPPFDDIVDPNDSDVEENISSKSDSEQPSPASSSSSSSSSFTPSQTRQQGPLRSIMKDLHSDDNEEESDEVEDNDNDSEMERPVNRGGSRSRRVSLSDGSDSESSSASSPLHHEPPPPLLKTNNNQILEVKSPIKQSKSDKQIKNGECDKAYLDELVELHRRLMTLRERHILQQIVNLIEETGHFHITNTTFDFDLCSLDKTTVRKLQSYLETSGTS
T1 sequence (Q03111 whole entry): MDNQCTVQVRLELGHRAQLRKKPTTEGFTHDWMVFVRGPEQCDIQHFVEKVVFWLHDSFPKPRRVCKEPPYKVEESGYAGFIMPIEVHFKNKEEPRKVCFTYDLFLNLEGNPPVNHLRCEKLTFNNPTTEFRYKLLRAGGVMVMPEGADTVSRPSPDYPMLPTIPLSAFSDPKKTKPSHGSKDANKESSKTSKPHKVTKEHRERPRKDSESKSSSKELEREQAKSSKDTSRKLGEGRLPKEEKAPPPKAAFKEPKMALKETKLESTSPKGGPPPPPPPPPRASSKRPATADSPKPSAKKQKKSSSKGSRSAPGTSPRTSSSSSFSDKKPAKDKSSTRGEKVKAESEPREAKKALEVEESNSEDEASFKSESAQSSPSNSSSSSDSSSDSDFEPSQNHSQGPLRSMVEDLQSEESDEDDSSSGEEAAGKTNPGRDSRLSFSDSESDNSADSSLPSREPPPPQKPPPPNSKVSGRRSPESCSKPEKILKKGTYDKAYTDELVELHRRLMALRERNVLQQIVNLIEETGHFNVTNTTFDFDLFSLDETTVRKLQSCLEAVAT

As for `C[C@H]1C[C@H](c2cn3cc(NC(=O)c4ccc5c(cnn5C)c4)ncc3n2)N(C)C1` (relative stereo) [Example 89, N-(2-((2R, rel-4S)-1,4-dimethylpyrrolidin-2-yl)imidazo[1,2-a]pyrazin-6-yl)-1-methyl-1H-indazole-5-carboxamide], the IC50 in assay [1] and in assay [2] (setting [4]) was 150 to 1500 nM throughout.
As for `C[C@@H]1C[C@H](c2cn3cc(NC(=O)c4ccc5c(cnn5C)c4)ncc3n2)N(C)C1` (relative stereo) [Example 90, N-(2-((2R, rel-4R)-1,4-dimethylpyrrolidin-2-yl)imidazo[1,2-a]pyrazin-6-yl)-1-methyl-1H-indazole-5-carboxamide], the IC50 is less than 150 nM in assay [1] and 150 to 1500 nM in assay [2] (setting [4]).
For the molecule `CO[C@H]1C[C@H](c2cn3cc(NC(=O)c4ccc5c(cnn5C)c4)ncc3n2)N(C)C1` (stereo in doubt) [Example 85, N-{2-[(rel-2R,4S)-4-methoxy-1-methylpyrrolidin-2-yl]imidazo[1,2-a]pyrazin-6-yl}-1-methylindazole-5-carboxamide], the IC50 in assay [1] and in assay [2] (setting [4]) was 150 to 1500 nM each time.
In the case of `CO[C@H]1C[C@@H](c2cn3cc(NC(=O)c4ccc5c(cnn5C)c4)ncc3n2)N(C)C1` (stereo in doubt) [Example 86, N-{2-[(rel-2S,4S)-4-methoxy-1-methylpyrrolidin-2-yl]imidazo[1,2-a]pyrazin-6-yl}-1-methylindazole-5-carboxamide], the half-maximal inhibitory concentration (IC50) in assay [1] was 150 to 1500 nM; in assay [2] (setting [4]), 1500 to 20000 nM.
For `CO[C@@H]1C[C@H](c2cn3cc(NC(=O)c4ccc5c(cnn5C)c4)ncc3n2)N(C)C1` (stereo in doubt) [Example 103, N-{2-[(rel-2R,4R)-4-methoxy-1-methylpyrrolidin-2-yl]imidazo[1,2-a]pyrazin-6-yl}-1-methylindazole-5-carboxamide], in that order: 150 to 1500 nM and 150 to 1500 nM.
Take `CO[C@@H]1C[C@@H](c2cn3cc(NC(=O)c4ccc5c(cnn5C)c4)ncc3n2)N(C)C1` (stereo in doubt) [Example 104, N-{2-[(rel-2S,4R)-4-methoxy-1-methylpyrrolidin-2-yl]imidazo[1,2-a]pyrazin-6-yl}-1-methylindazole-5-carboxamide]: the half-maximal inhibitory concentration (IC50) in assay [1] was in the range of 150 to 1500 nM; in assay [2] (setting [4]), 1500 to 20000 nM.
Turning to `CN1C[C@H](F)C[C@@H]1c1cn2cc(NC(=O)c3ccc4c(cnn4C)c3)ncc2n1` [Example 105, N-(2-((2R,4R)-4-fluoro-1-methylpyrrolidin-2-yl)imidazo[1,2-a]pyrazin-6-yl)-1-methyl-1H-indazole-5-carboxamide], the IC50 in assay [3] fell in the range of 150 to 1500 nM; in assay [2] (MLLT3 assay IC50 (nM), 6His tagged MLLT3, biotinylated H3K9cro peptide, compound 20 μM to 20 nM, 11 data points in duplicate), 150 to 1500 nM.

Usually IC50 stands for the concentration that inhibits the measured activity by half.

(Values after patent US20260216196A1, “IMIDAZO[1,2-A]PYRIDINE AND IMIDAZO[1,2-A]PYRAZINE DERIVATIVES AS MLLT1 AND MLLT3 INHIBITORS” (DARK BLUE THERAPEUTICS LTD., priority 2022, published 2026).)
